Source: patent US9006241B2, “Pyrimidine derivatives” (Noviga Research AB, priority 2011, dated 2015)

What was measured:
Format in all cases: cell-based
[1] = tested on: CCRF-CEM cancer cells - leukemia; assay: Fluorometric Microculture Cytotoxicity Assay (FMCA), CCRF-CEM; conditions: Homo sapiens, 72 h incubation
Source text: (§1) The Fluorometric Microculture Cytotoxicity Assay, FMCA (Larsson, R., et al.; Anticancer Res, 1989, 9, 1111-1119), is a three day non-clonogenic microplate-based cell viability assay used for measurement of the cytotoxic and/or cytostatic effect of compounds in vitro (Lindhagen, E. et al.; Nat. Protoc., 2008, 3, 1364-1369). FMCA represents a valuable method to measure cytotoxicity in a number of cell types, both cell lines and primary cells from patients (Larsson, R., et al.; Int. J. Cancer, 1992, 50, 177-185; Fridborg, H., et al.; Eur. J. Cancer, 1999. 35, 424-432; Dhar, S., et al.; Br. J. Cancer, 1996, 74, 888-896).
(§2) FMCA is based on the principle that fluorescein diacetate (FDA) is converted to the fluorescent probe fluorescein by esterases in the plasma membranes of living cells. For experiments, 96 or 384-well microplates are prepared with compounds and stored at −70° C. until use. Cells are then seeded into the drug-prepared plates and placed in an incubator for 72 h. On the last day of incubation, the plates are washed and a buffer containing FDA is added and incubated with the cells for 45 minutes. Finally the fluorescence per well is measured in a fluorometer and a Survival Index % (SI) for each compound-treated well is calculated with the equation: Compound-treated cells minus blank divided by control cells minus blank. A high SI-value indicates a large percentage of living cells and vice versa.
In subsequent experiments, compounds were tested, along with a number of approved cancer drugs (dasatinib, pazopanib, sorafenib, and sunitinib) as described above. Initially, the acute lymphoblastic leukemia cell line CCRF-CEM was used throughout. In the assay plates, medium was added to six empty wells (blank wells) and wells were filled with PBS and cell suspension and served as control wells. SI-values were then calculated for each compound-treated well as described above. All experiments were conducted twice and a new batch of plates was prepared for each experiment.
(§3) For dose-response experiments, 384-well plates were prepared as follows:
(§4) Compounds of the invention as well comparative kinase inhibitors sorafenib sunitinib, dasatinib, pazopanib and a reference compound disclosed in WO 2009/071535 (compound #107) were diluted with PBS to a concentration ten-times higher than the desired starting concentration. Then, a Biomek 2000 liquid handling system was employed to serially dilute the compounds in a deep-well 384-well plate. From this plate, assay plates containing 5 μl compound per well were prepared with the Biomek 2000. Certain compounds precipitated when diluted with PBS, and these compounds were therefore prepared in a 96-well plate manually as described above using culture medium RPMI 1640 instead of PBS.
(§5) The compounds were also tested at five concentrations, with five times serial dilution on the following cell types: CCRF-CEM, hTERT-RPE1 (normal retinal epithelial cells), hRPTEpiC (normal renal cells), and peripheral blood mononuclear cells (PBMC). Each experiment was performed three times, except for PBMC and hRPTEpiC, which were performed twice. SI-values were calculated, graphs were plotted using GraphPadPrism 5.0 (GraphPad Software Inc. La Jolla, Calif.) and IC50-values for each cell type and compound were determined from the curves.

[2] = tested on: MDA-MB-231 (breast cancer); assay: FMCA, MDA-MB-231; conditions: Homo sapiens, MDA-MB-231 breast cancer cells
Source text: as §1, §2, §3, §4, §5
(§6) The compounds of the invention were also tested on further cancer cell lines related to breast cancer (MDA-MB-231; see e.g. Cailleau, R., et al.; J. Natl. Cancer Inst., 1974, 53, 661-674), teniposide-resistant leukemia (CEM/VM1 see e.g. Danks, M., et al.; Cancer Res., 1987, 47, 1297-1301), leukemia (HL-60; see e.g. Collins, S., et al.; Nature, 1977, 270, 347-349), doxorubicin-resistant lung cancer (H69AR; see e.g. Mirski, S., et al.; Cancer Res., 1987, 47, 2594-2598), myeloma (RPMI 8226; see e.g. Matsuoka, Y., et al.; Proc. Soc. Exp. Biol. Med., 1967, 125, 1246-1250), doxorubicin-resistant myeloma (8226/Dox40; see e.g. Dalton, W., et al.; Blood, 1989, 15, 747-752), lymphoma (U-937, see e.g. Sundström, C., et al.; Int. […]

[3] = tested on: CEM/VM1 (teniposide-resistant leukemia); assay: FMCA, CEM/VM1; conditions: Homo sapiens, CEM/VM1 teniposide-resistant leukemia cells
Source text: as §1, §2, §3, §4, §5
as §6, with “Int. J. Cancer, 1976, 17, 565-577), vincristin-resistant lymphoma (U-937-vcr; see e.g. Botling, J., et al.; Int. J. Cancer, 1994, 58, 269-274), ovarian cancer (A2780; see e.g. Hamilton, T., et al.; Semin. Oncol., 1984, 11, 285-298), doxorubicin-resistant ovarian cancer (A2780/Adr), cisplatin-resistant ovarian cancer (A2780/Cis; see e.g. Behrens, B., et al. Cancer Res. 1987, 47, 414-418), pancreatic cancer (PANC-1, BxPC-3, and MIA PaCa-2; see e.g. Lieber, M., et al.; Int. J. Cancer, 1975, 15, 741-747; Loor, R., et al.; Clin. Lab.” for “Int.”

[4] = tested on: HL-60 (leukemia); assay: FMCA, HL-60; conditions: Homo sapiens, HL-60 leukemia cells
Source text: as §1, §2, §3, §4, §5, §6

[5] = tested on: H69AR (doxorubicin-resistant lung cancer); assay: FMCA, H69AR; conditions: Homo sapiens, H69AR doxorubicin-resistant lung cancer cells
Source text: as §1, §2, §3, §4, §5
as §6, with “Int. J. Cancer, 1976, 17, 565-577), vincristin-resistant lymphoma (U-937-vcr; see e.g. Botling, J., et al.; Int. J. Cancer, 1994, 58, 269-274), ovarian cancer (A2780; see e.g. Hamilton, T., et al.; Semin. Oncol., 1984, 11, 285-298), doxorubicin-resistant ovarian cancer (A2780/Adr), cisplatin-resistant ovarian cancer (A2780/Cis; see e.g. Behrens, B., et al. Cancer Res. 1987, 47, 414-418), pancreatic cancer (PANC-1, BxPC-3, and MIA PaCa-2; see e.g. Lieber, M., et al.; Int. J. Cancer, 1975, 15, 741-747; Loor, R., et al.; Clin. Lab.” for “Int.”

[6] = tested on: RPMI 8226 (myeloma); assay: FMCA, RPMI 8226; conditions: Homo sapiens, RPMI 8226 myeloma cells
Source text: as §1, §2, §3, §4, §5
as §6, with “Int. J. Cancer, 1976, 17, 565-577), vincristin-resistant lymphoma (U-937-vcr; see e.g. Botling, J., et al.; Int. J. Cancer, 1994, 58, 269-274), ovarian cancer (A2780; see e.g. Hamilton, T., et al.; Semin. Oncol., 1984, 11, 285-298), doxorubicin-resistant ovarian cancer (A2780/Adr), cisplatin-resistant ovarian cancer (A2780/Cis; see e.g. Behrens, B., et al. Cancer Res. 1987, 47, 414-418), pancreatic cancer (PANC-1, BxPC-3, and MIA PaCa-2; see e.g. Lieber, M., et al.; Int. J. Cancer, 1975, 15, 741-747; Loor, R., et al.; Clin. Lab.” for “Int.”

[7] = tested on: 8226/Dox40 (doxorubicin-resistant myeloma); assay: FMCA, 8226/Dox40; conditions: 8226/Dox40 doxorubicin-resistant myeloma cells
Source text: as §1, §2, §3, §4, §5
as §6, with “Int. J. Cancer, 1976, 17, 565-577), vincristin-resistant lymphoma (U-937-vcr; see e.g. Botling, J., et al.; Int. J. Cancer, 1994, 58, 269-274), ovarian cancer (A2780; see e.g. Hamilton, T., et al.; Semin. Oncol., 1984, 11, 285-298), doxorubicin-resistant ovarian cancer (A2780/Adr), cisplatin-resistant ovarian cancer (A2780/Cis; see e.g. Behrens, B., et al. Cancer Res. 1987, 47, 414-418), pancreatic cancer (PANC-1, BxPC-3, and MIA PaCa-2; see e.g. Lieber, M., et al.; Int. J. Cancer, 1975, 15, 741-747; Loor, R., et al.; Clin. Lab.” for “Int.”

[8] = tested on: U-937 (lymphoma); assay: FMCA, U-937; conditions: Homo sapiens, U-937 lymphoma cells
Source text: as §1, §2, §3, §4, §5
as §6, with “Int. J. Cancer, 1976, 17, 565-577), vincristin-resistant lymphoma (U-937-vcr; see e.g. Botling, J., et al.; Int. J. Cancer, 1994, 58, 269-274), ovarian cancer (A2780; see e.g. Hamilton, T., et al.; Semin. Oncol., 1984, 11, 285-298), doxorubicin-resistant ovarian cancer (A2780/Adr), cisplatin-resistant ovarian cancer (A2780/Cis; see e.g. Behrens, B., et al. Cancer Res. 1987, 47, 414-418), pancreatic cancer (PANC-1, BxPC-3, and MIA PaCa-2; see e.g. Lieber, M., et al.; Int. J. Cancer, 1975, 15, 741-747; Loor, R., et al.; Clin. Lab.” for “Int.”

[9] = tested on: U-937-vcr (vincristin-resistant lymphoma); assay: FMCA, U-937-vcr; conditions: U-937-vcr vincristin-resistant lymphoma cells
Source text: as §1, §2, §3, §4, §5
as §6, with “Int. J. Cancer, 1976, 17, 565-577), vincristin-resistant lymphoma (U-937-vcr; see e.g. Botling, J., et al.; Int. J. Cancer, 1994, 58, 269-274), ovarian cancer (A2780; see e.g. Hamilton, T., et al.; Semin. Oncol., 1984, 11, 285-298), doxorubicin-resistant ovarian cancer (A2780/Adr), cisplatin-resistant ovarian cancer (A2780/Cis; see e.g. Behrens, B., et al. Cancer Res. 1987, 47, 414-418), pancreatic cancer (PANC-1, BxPC-3, and MIA PaCa-2; see e.g. Lieber, M., et al.; Int. J. Cancer, 1975, 15, 741-747; Loor, R., et al.; Clin. Lab.” for “Int.”

[10] = tested on: A2780 (ovarian cancer); assay: FMCA, A2780; conditions: Homo sapiens, A2780 ovarian cancer cells
Source text: as §1, §2, §3, §4, §5
as §6, with “Int. J. Cancer, 1976, 17, 565-577), vincristin-resistant lymphoma (U-937-vcr; see e.g. Botling, J., et al.; Int. J. Cancer, 1994, 58, 269-274), ovarian cancer (A2780; see e.g. Hamilton, T., et al.; Semin. Oncol., 1984, 11, 285-298), doxorubicin-resistant ovarian cancer (A2780/Adr), cisplatin-resistant ovarian cancer (A2780/Cis; see e.g. Behrens, B., et al. Cancer Res. 1987, 47, 414-418), pancreatic cancer (PANC-1, BxPC-3, and MIA PaCa-2; see e.g. Lieber, M., et al.; Int. J. Cancer, 1975, 15, 741-747; Loor, R., et al.; Clin. Lab.” for “Int.”

[11] = tested on: A2780/Adr (doxorubicin-resistant ovarian cancer); assay: FMCA, A2780/Adr; conditions: A2780/Adr doxorubicin-resistant ovarian cancer cells
Source text: as §1, §2, §3, §4, §5
as §6, with “Int. J. Cancer, 1976, 17, 565-577), vincristin-resistant lymphoma (U-937-vcr; see e.g. Botling, J., et al.; Int. J. Cancer, 1994, 58, 269-274), ovarian cancer (A2780; see e.g. Hamilton, T., et al.; Semin. Oncol., 1984, 11, 285-298), doxorubicin-resistant ovarian cancer (A2780/Adr), cisplatin-resistant ovarian cancer (A2780/Cis; see e.g. Behrens, B., et al. Cancer Res. 1987, 47, 414-418), pancreatic cancer (PANC-1, BxPC-3, and MIA PaCa-2; see e.g. Lieber, M., et al.; Int. J. Cancer, 1975, 15, 741-747; Loor, R., et al.; Clin. Lab.” for “Int.”

[12] = tested on: A2780/Cis (cisplatin-resistant ovarian cancer); assay: FMCA, A2780/Cis; conditions: A2780cis, A2780/Cis cisplatin-resistant ovarian cancer cells
Source text: as §1, §2, §3, §4, §5
as §6, with “Int. J. Cancer, 1976, 17, 565-577), vincristin-resistant lymphoma (U-937-vcr; see e.g. Botling, J., et al.; Int. J. Cancer, 1994, 58, 269-274), ovarian cancer (A2780; see e.g. Hamilton, T., et al.; Semin. Oncol., 1984, 11, 285-298), doxorubicin-resistant ovarian cancer (A2780/Adr), cisplatin-resistant ovarian cancer (A2780/Cis; see e.g. Behrens, B., et al. Cancer Res. 1987, 47, 414-418), pancreatic cancer (PANC-1, BxPC-3, and MIA PaCa-2; see e.g. Lieber, M., et al.; Int. J. Cancer, 1975, 15, 741-747; Loor, R., et al.; Clin. Lab.” for “Int.”

[13] = tested on: BxPC-3 (pancreatic cancer); assay: FMCA, BxPC-3; conditions: Homo sapiens, BxPC-3 pancreatic cancer cells
Source text: as §1, §2, §3, §4, §5, §6

[14] = tested on: PANC-1 (pancreatic cancer); assay: FMCA, PANC-1; conditions: Homo sapiens, PANC-1 pancreatic cancer cells
Source text: as §1, §2, §3, §4, §5, §6

[15] = tested on: MIA PaCa-2 (pancreatic cancer); assay: FMCA, MIA PaCa-2; conditions: Homo sapiens, MIA PaCa-2 pancreatic cancer cells
Source text: as §1, §2, §3, §4, §5, §6

[16] = tested on: PC-3 (prostate cancer); assay: FMCA, PC-3; conditions: PC-3 prostate cancer cells
Source text: as §1, §2, §3, §4, §5, §6

Which results are given for `COc1ccc2[nH]cc(CCNc3nccc(Nc4ccc5[nH]c(C)cc5c4)n3)c2c1` [Example 4, N^2-[2-(5-methoxy-1H-indol-3-yl)ethyl]-N^4-(2-methyl-1H-indol-5-yl)pyrimidine-2,4-diamine]?
EC50 [1]: 28 nM; EC50 [2]: 100 nM; EC50 [3]: 6.6 nM; EC50 [4]: 9.1 nM; EC50 [5]: 23 nM; EC50 [6]: 45 nM; EC50 [7]: 110 nM; EC50 [8]: 13 nM; EC50 [9]: 28 nM; EC50 [10]: 33 nM; EC50 [11]: 140 nM; EC50 [12]: 25 nM; EC50 [13]: 37 nM; EC50 [14]: 1600 nM; EC50 [15]: 14 nM; EC50 [16]: 240 nM
